For one assay, the target named is T1, hNTS1 receptor (Homo sapiens, UniProt P30989).
T1 construct: membranes prepared from them
As to the kind of experiment: Competitive radioligand binding assay on the hNTS1 receptor. The settings on record: displacement of 125I-[Tyr3]-NT, membranes of CHO-K1 cells expressing hNTS1; read-out: IC50 NTS1. As for the experimental part: (§1) CHO-K1 (Chinese Hamster Ovary) cells stably expressing hNTS1 and 1321N1 cells stably expressing hNTS2 (ES-690-C and ES-691-C from PerkinElmer, Montréal, Canada) were cultured respectively in Ham's F12 and in DMEM culture media. Culture media were supplemented with 10% FBS, 100 U/mL penicillin, 100 μg/mL streptomycin, 20 mM HEPES, and 0.4 mg/mL G418 at 37° C. in a humidified chamber at 5% CO2.
(§2) The cells expressing hNTS1 were frozen when they reached 80% confluency. They were scrapped off the dish with 10 mM Tris buffer, 1 mM EDTA, pH 7.5 and centrifuged at 15,000 g for 5 min at 4° C. The pellet was then re-suspended in 1 mL binding buffer. The cells expressing hNTS2 were also frozen when they reached 80% confluency. They were scraped off the dish with PBS, 0.5 mM EDTA, pH 7.5 and sonicated for 5 minutes (pulse 30 s/5 s off, amplitude 40%). They were ultracentrifuged at 100 000 g for 60 minutes at 4° C. The pellet was re-suspended in 1 mL freezing buffer (PBS, glycerol, 0.5 mM EDTA), sonicated for 1 minute (pulse 30 s/5 s off, amplitude 50%) and further diluted in binding buffer. Competitive radioligand binding experiments were performed by incubating 15 μg of cell membranes expressing the hNTS1 receptor with […] of ^125I-[Tyr^3]-NT (2200 Ci/mmol) or 50 μg of cell membranes expressing the hNTS2 receptor with […] of ^125I-[Tyr^3]-NT in binding buffer (50 mM Tris-HCl, pH 7.5, 0.2% BSA) in the presence of increasing concentrations of analogues ranging from 10^−11 to 10^−4 M for 60 min at 25° C. After incubation, the binding reaction mixture was transferred in PEI-coated 96-well filter plates (glass fiber filters GF/B, Millipore, Billerica, MA). Reaction was terminated by filtration, and plates were washed three times with 200 μL ice-cold binding buffer. Glass filters were then counted using a γ-counter (2470 Wizard2, PerkinElmer, Mississauga, Ontario, Canada). Non-specific binding was measured in the presence of 10^−5 M unlabeled NT (8-13) and represented less than 5% of total binding. IC50 values were determined from competition curves as the unlabeled ligand concentration inhibiting 50% of ^125I-[Tyr^3]-NT-specific binding.
(§3) Competitive radioligand binding data were plotted using the nonlinear regression One-site-Fit Log(IC50) and represented the mean±SEM of at least three independent experiments in triplicates.
(Loss of bound radioactivity is the signal in a displacement assay; it reports binding, not function.)

The target in another assay is T2, hNTS2 receptor (Homo sapiens, UniProt O95665).
T2 construct: membranes prepared from them
T2 sequence (O95665 whole entry): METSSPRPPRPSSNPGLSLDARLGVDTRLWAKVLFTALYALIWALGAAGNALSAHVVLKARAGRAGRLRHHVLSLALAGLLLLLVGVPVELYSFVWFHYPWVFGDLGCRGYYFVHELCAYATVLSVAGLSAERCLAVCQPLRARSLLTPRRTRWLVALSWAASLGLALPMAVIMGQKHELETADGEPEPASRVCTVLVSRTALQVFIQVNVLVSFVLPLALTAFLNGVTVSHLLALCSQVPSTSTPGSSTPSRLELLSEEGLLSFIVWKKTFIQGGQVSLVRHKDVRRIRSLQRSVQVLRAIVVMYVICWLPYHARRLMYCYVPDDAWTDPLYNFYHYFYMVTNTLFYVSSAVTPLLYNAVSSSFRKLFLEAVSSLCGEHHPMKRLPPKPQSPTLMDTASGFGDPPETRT
As to the kind of experiment: Competitive radioligand binding assay on the hNTS2 receptor. The settings on record: for IC50: displacement of 125I-[Tyr3]-NT, membranes of 1321N1 cells expressing hNTS2, read-out: IC50 NTS2 (converted); for Selectivity: ratio IC50 for NTS1 : IC50 for NTS2. As for the experimental part:
as §1, §2, §3

The structures appear in SMILES notation. *1 amine or outer side, *2 acyl side, *3 side chain or, on linkers, in order; H or OH if unused. Where a SMILES comes first, the peptide text is derived from it. Bridges are numbered along the chain shown (N, C = ends). [ ]: non-standard residue; d: D form. ξ: configuration not given here. ξαMeNle(6-ylidene) = CC(CCCC=[*:3])(N[*:1])C(=O)[*:2]; Ala(cHept) = N[C@@H](CC1CCCCCC1)C(=O)O; Phe(4-F) = N[C@@H](Cc1ccc(F)cc1)C(=O)O; Phe(4-I) = N[C@@H](Cc1ccc(I)cc1)C(=O)O; AllylGly = C=CC[C@H](N)C(=O)O; R5 = C=CCCC[C@@](C)(N)C(=O)O; S5 = C=CCCC[C@](C)(N)C(=O)O; Nle = CCCC[C@H](N)C(=O)O; Orn = NCCC[C@H](N)C(=O)O; Dab = NCC[C@H](N)C(=O)O; Nva = CCC[C@H](N)C(=O)O; Dap = NC[C@H](N)C(=O)O Where only a bound is given, the exact number is not on record here.

T1 sequence (P30989 whole entry): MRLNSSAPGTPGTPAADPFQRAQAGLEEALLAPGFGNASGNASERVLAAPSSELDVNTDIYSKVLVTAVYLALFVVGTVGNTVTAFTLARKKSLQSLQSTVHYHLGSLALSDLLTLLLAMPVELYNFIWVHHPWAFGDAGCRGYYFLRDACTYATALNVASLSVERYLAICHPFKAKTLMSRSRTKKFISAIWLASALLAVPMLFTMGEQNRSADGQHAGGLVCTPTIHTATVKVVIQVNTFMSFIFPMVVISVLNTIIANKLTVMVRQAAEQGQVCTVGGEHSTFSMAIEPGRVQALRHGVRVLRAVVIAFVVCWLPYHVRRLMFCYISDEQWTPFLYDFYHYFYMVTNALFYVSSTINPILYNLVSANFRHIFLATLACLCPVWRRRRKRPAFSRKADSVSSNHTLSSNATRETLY

A word on the IC50: it is the concentration that gives 50% inhibition. As for `NCCCC[C@@H]1NC(=O)[C@H](CCCCN)NC(=O)[C@@H](N)CC=CC[C@@H](C(=O)N[C@@H](Cc2ccc(O)cc2)C(=O)N[C@@H](CC2CCCCCC2)C(=O)O)NC1=O` [compound 68, c[G(All)KKG(All)]YA(cycloheptyl)] (H-[AllylGly]KK[AllylGly]Y[Ala(cHept)]-OH; staple 1-4), the IC50 at hNTS1 receptor was more than 100000 nM. Also, on hNTS2 receptor, the IC50 is 6.85 nM and the Selectivity was >14 600.
The like results for `COc1ccc(C[C@H](NC(=O)[C@@H]2CC=CC[C@H](N)C(=O)N[C@@H](CCCCN)C(=O)N[C@@H](CCCCN)C(=O)N2)C(=O)N[C@@H](CC(C)C)C(=O)O)cc1` [compound 75, c[G(All)KKG(All)]Y(OMe)L] (H-[AllylGly]KK[AllylGly]Y(Me)L-OH; staple 1-4) were, in that order, more than 100000 nM, 86.3 nM and more than 1159.
As for `CC(C)C[C@H](NC(=O)[C@H](Cc1ccccc1)NC(=O)[C@@H]1CC=CC[C@H](N)C(=O)N[C@@H](CCCCN)C(=O)N[C@@H](CCCCN)C(=O)N1)C(=O)O` [compound 76, c[G(All)KKG(All)FL] (H-[AllylGly]KK[AllylGly]FL-OH; staple 1-4), on hNTS1 receptor, the IC50 was more than 100000 nM. In addition, at hNTS2 receptor, the half-maximal inhibitory concentration (IC50) is 85.1 nM and the Selectivity is reported as more than 1175.
In the same order, the values of `CC(C)C[C@H](NC(=O)[C@H](Cc1ccc(F)cc1)NC(=O)[C@@H]1CC=CC[C@H](N)C(=O)N[C@@H](CCCCN)C(=O)N[C@@H](CCCCN)C(=O)N1)C(=O)O` [compound 77, c[G(All)KKG(All)]F(4-fluoro)L] (H-[AllylGly]KK[AllylGly][Phe(4-F)]L-OH; staple 1-4) are more than 100000 nM, 95.6 nM and more than 1046.
In the same order, the values of `CC(C)C[C@H](NC(=O)[C@H](Cc1ccc(I)cc1)NC(=O)[C@@H]1CC=CC[C@H](N)C(=O)N[C@@H](CCCCN)C(=O)N[C@@H](CCCCN)C(=O)N1)C(=O)O` [compound 78, c[G(All)KKG(All)]F(4-iodo)L] (H-[AllylGly]KK[AllylGly][Phe(4-I)]L-OH; staple 1-4) are more than 100000 nM, 15.5 nM and more than 6452.
The like results for `CC(C)C[C@H](NC(=O)[C@H](Cc1ccc(O)cc1)NC(=O)[C@@H]1CC=CC[C@H](N)C(=O)N[C@@H](CCCN)C(=O)N[C@@H](CCCCN)C(=O)N1)C(=O)O` [compound 79, c[G(All)OrnKG(All)]YL] (H-[AllylGly][Orn]K[AllylGly]YL-OH; staple 1-4) were, in that order, more than 100000 nM, 77.5 nM and more than 1291.
As for `CC(C)C[C@H](NC(=O)[C@H](Cc1ccc(O)cc1)NC(=O)[C@@H]1CC=CC[C@H](N)C(=O)N[C@@H](CCN)C(=O)N[C@@H](CCCCN)C(=O)N1)C(=O)O` [compound 80, c[G(All)DabKG(All)]YL] (H-[AllylGly][Dab]K[AllylGly]YL-OH; staple 1-4), on hNTS1 receptor, the IC50 is more than 100000 nM. For the same compound, on hNTS2 receptor, the IC50 was 137 nM and the Selectivity was more than 729.
The like results for `CC(C)C[C@H](NC(=O)[C@H](Cc1ccc(O)cc1)NC(=O)[C@@H]1CC=CC[C@H](N)C(=O)N[C@@H](CN)C(=O)N[C@@H](CCCCN)C(=O)N1)C(=O)O` [compound 81, c[G(All)DapKG(All)]YL] (H-[AllylGly][Dap]K[AllylGly]YL-OH; staple 1-4) were, in that order, more than 100000 nM, 180 nM and more than 557.2.
The like results for `CC(C)C[C@H](NC(=O)[C@H](Cc1ccc(O)cc1)NC(=O)[C@@H]1CC=CC[C@H](N)C(=O)N[C@H](CCCCN)C(=O)N[C@@H](CCCCN)C(=O)N1)C(=O)O` [compound 82, c[G(All)K*KG(All)]YL] (H-[AllylGly][dK]K[AllylGly]YL-OH; staple 1-4) were, in that order, more than 100000 nM, 621 nM and more than 161.
The like results for `CC(C)C[C@H](NC(=O)[C@H](Cc1ccc(O)cc1)NC(=O)[C@@H]1CC=CC[C@H](N)C(=O)N[C@@H](Cc2c[nH]cn2)C(=O)N[C@@H](CCCCN)C(=O)N1)C(=O)O` [compound 83, c[G(All)HKG(All)]YL] (H-[AllylGly]HK[AllylGly]YL-OH; staple 1-4) were, in that order, more than 100000 nM, 1320 nM and more than 76.
For `CC(C)C[C@H](NC(=O)[C@H](Cc1ccc(O)cc1)NC(=O)[C@@H]1CC=CC[C@H](N)C(=O)N[C@H](Cc2c[nH]cn2)C(=O)N[C@@H](CCCCN)C(=O)N1)C(=O)O` [compound 84, c[G(All)H*KG(All)]YL] (H-[AllylGly][dH]K[AllylGly]YL-OH; staple 1-4), the IC50 on hNTS1 receptor is more than 100000 nM. Further, at hNTS2 receptor, the IC50 is 646 nM and the Selectivity is recorded as more than 154.9.
The like results for `CCCC[C@@H]1NC(=O)[C@@H](N)CC=CC[C@@H](C(=O)N[C@@H](Cc2ccc(O)cc2)C(=O)N[C@@H](CC(C)C)C(=O)O)NC(=O)[C@H](CCCCN)NC1=O` [compound 85, c[G(All)NleKG(All)]YL] (H-[AllylGly][Nle]K[AllylGly]YL-OH; staple 1-4) were, in that order, more than 100000 nM, 1070 nM and more than 93.
In the same order, the values of `CCC[C@@H]1NC(=O)[C@@H](N)CC=CC[C@@H](C(=O)N[C@@H](Cc2ccc(O)cc2)C(=O)N[C@@H](CC(C)C)C(=O)O)NC(=O)[C@H](CCCCN)NC1=O` [compound 86, c[G(All)NvaKG(All)]YL] (H-[AllylGly][Nva]K[AllylGly]YL-OH; staple 1-4) are more than 100000 nM, 743 nM and more than 135.
In the same order, the values of `CC(C)C[C@H](NC(=O)[C@H](Cc1ccc(O)cc1)NC(=O)[C@@H]1CC=CC[C@H](N)C(=O)NCC(=O)N[C@@H](CCCCN)C(=O)N1)C(=O)O` [compound 87, c[G(All)GKG(All)]YL] (H-[AllylGly]GK[AllylGly]YL-OH; staple 1-4) are more than 100000 nM, 516 nM and more than 194.
`CC(C)C[C@H](NC(=O)[C@H](Cc1ccc(O)cc1)NC(=O)[C@@H]1CC=CC[C@H](N)C(=O)N[C@@H](CCC(=O)O)C(=O)N[C@@H](CCCCN)C(=O)N1)C(=O)O` [compound 88, c[G(All)EKG(All)]YL] (H-[AllylGly]EK[AllylGly]YL-OH; staple 1-4): the IC50 at hNTS1 receptor is more than 100000 nM. At hNTS2 receptor, the IC50 is 10600 nM and the Selectivity was more than 9.4.
The like results for `CC(C)C[C@H](NC(=O)[C@H](Cc1ccc(O)cc1)NC(=O)[C@@H]1CC=CCCC[C@](C)(N)C(=O)N[C@@H](CCCCN)C(=O)N[C@@H](CCCCN)C(=O)N1)C(=O)O` [compound 89, c[G(alpha-Me-(4-Pentenyl))KKG(All)]YL] (H-[S5]KK[AllylGly]YL-OH; staple 1-4) were, in that order, more than 100000 nM, 13.2 nM and more than 7553.
The like results for `CC(C)C[C@H](NC(=O)[C@H](Cc1ccc(O)cc1)NC(=O)[C@@H]1CC=CCCC[C@@](C)(N)C(=O)N[C@@H](CCCCN)C(=O)N[C@@H](CCCCN)C(=O)N1)C(=O)O` [compound 90, c[G*(alpha-Me-(4-Pentenyl))KKG(All)]YL] (H-[R5]KK[AllylGly]YL-OH; staple 1-4) were, in that order, more than 100000 nM, 76.9 nM and more than 1300.
In the same order, the values of `CC(C)C[C@H](NC(=O)[C@H](Cc1ccc(O)cc1)NC(=O)C1(C)CCCC=CCCCC(C)(N)C(=O)N[C@@H](CCCCN)C(=O)N[C@@H](CCCCN)C(=O)N1)C(=O)O` (stereo partly drawn) [compound 93, c[G(alpha-Me-(4-Pentenyl))KKG*(alpha-Me(4-Pentenyl))]YL] (H-[ξαMeNle(6-ylidene)]KK[ξαMeNle(6-ylidene)]YL-OH; staple 1-4) are more than 100000 nM, 34.4 nM and more than 2907.
For the compound `CC(C)C[C@H](NC(=O)[C@H](Cc1ccc(O)cc1)NC(=O)[C@@H]1CC(=O)NC[C@H](N)C(=O)N[C@@H](CCCCN)C(=O)N[C@@H](CCCCN)C(=O)N1)C(=O)O` [compound 94, c[DapKKD]YL] (H-[Dap]KKDYL-OH; lactam 1-4), on hNTS1 receptor, the IC50 was more than 100000 nM. Moreover, at hNTS2 receptor, the 50% inhibitory concentration (IC50) was 22800 nM and the Selectivity is listed as more than 4.4.

(Values after patent publication US12358948B2, “Neurotensinergic agonists and methods of using same preventing or treating pain” (priority 2019, dated 2025).)
